Reference: patent US20130024954A1, “Human Age-Related Neurodegenerative Nematode Model and Methods” (priority 2011, published 2013)

Assays:
[1] = system: VC4 and VC5 neurons; experiment: Quantification of percent neurodegeneration of VC4&5 neurons with drug treatment (Example 2); type: in vivo, C. elegans; settings: for neurodegeneration induced by APP or apl-1 (in words): 50 μM from L4-larval stage onward, FIG. 25A; for degeneration with gain-of-function mutation in egl-1 (in words): SC_APP and SC_apl-1 strains with egl-1 gain-of-function mutation; for degeneration of VC4&5, SC_APPC59 strain (in words): SC_APPC59 strain (intracellular portion of APP); for degeneration of VC4&5, SC_APPC59 strain (in words) / degeneration of VC4&5, SC_APPN636 strain (in words): FIG. 31; for degeneration of VC4&5, SC_APPN636 strain (in words): SC_APPN636 strain (extracellular and transmembrane portion of APP); for degeneration in egl-1 (null) mutant background (in words): egl-1 (null) background, FIG. 25C
Experimental: All analyses were completed with the experimenter blind to genotype and drug treatment. Age-synchronized animals were immobilized on 2% agar pads containing 0.7 mM sodium azide. Neurons that had broken/missing axonal projections, dimly-lit somas with missing projections or absent GFP labeling in the appropriate neuronal location were classified as degenerating. Serotonin neurons included NSM, ADF, AIM, RIH, HSN class members. All animals were evaluated within 10 minutes of azide treatment. In cases where the worm strains were too defective in egg laying to reach day 3 or 5 adult stage, animals were treated at L4-larval stage onward with the sterilization drug 5-fluoro-2′-deoxyuridne (0.12 mM final) (Sigma). […] The percentage of VC4 and VC5 neurons that succumbed to APP-induced degeneration was compared for different groups (strain, age, drug condition) using planned non-parametric X^2 analyses.
Drugs were freshly prepared in buffer (M9) solution and pipetted onto small seeded plates. These plates were allowed to dry at least 2 hours at RT before use. The final drug concentrations of solid media are: Dimebon, 50 μM (Tocris); P7C3, 50 μM. Well-fed larval stage 4 animals were picked onto seeded plates with or without drug. Animals were then allowed to age at 20° C. for ˜20 (day 1 adult), ˜68 (day 3 adult) and ˜116 hours (day 5 adult) before analysis. Controls using buffer with no drug were performed on each strain for each assay, and each assay was repeated multiple (3-8) times. Data were then averaged and statistically compared with planned non-parametric X2 analyses (Zar, 1999).

[2] = system: egg-laying and swimming behaviors; experiment: Egg-retention assay and swimming kinematics (behaviors that depend on VC4&5 neurons); type: in vivo, C. elegans; settings: for egg-laying and swimming behaviors, SC_APPC59 strain (in words): data not shown; for behavioral deficits (swimming and egg laying) with age (in words): drug-treated SC_APP:mCh or SC_apl-1:mCh individuals
Experimental: Plates of non-starved adult worms were bleached to yield a synchronized population of eggs. Eggs were allowed to develop for ˜55 hours (day 1 adult) and ˜103 (day 3 adult) hours at 20° C. Animals were then individually dissolved in 1N NaOH, and eggs retained within the dissolved adult animal were counted.
Worms were submerged in NGM liquid and recorded for 1 minute following a 2-minute acclimation period. Spine analysis software was then used to calculate and plot the midbody angle of the worm as described in Pierce-Shimomura J T, Chen B L, Mun J J, Ho R, Sarkis R, McIntire S L. 2008. Genetic analysis of crawling and swimming locomotory patterns in C. elegans. Proc Natl Acad Sci USA. 105: 20982-7, incorporated by reference. Head-bend frequency was determined based on the average time it took an animal to make 20 complete-cycle head bends.

[3] = system: neurons VC4 and VC5; experiment: Degeneration of VC4 and VC5 neurons in single-copy apl-1/huAPP695 overexpression worms treated with drugs (Example 1); type: in vivo, C. elegans; settings: for APP-induced degeneration of VC4 and VC5 (in words): Example 1, FIG. 19, Table 3; for % degen / Day 1 (degenerated of counted) / Day 3 (degenerated of counted) / Day 5 (degenerated of counted): Dimebon
Source text: Many transgenic strains can be easily obtained from a public consortium (CGC), including those with specific neurons fluorescently labeled in a variety of colors. If not publicly available, these strains can be easily constructed using a PCR fusion approach. Final PCR products contain the GFP gene driven by a specific promoter-of-interest and are then microinjected into the gonad of adult wildtype animals. C. elegans have the ability to form a stable, functional extra-chromosomal array with injected PCR products. Therefore, they express injected DNA. Fluorescent worms are then crossed to the single-copy overexpression worms to generate overexpression worms with different identifiable sets of neurons labeled.

[4] = system: adult-born neurons in the hippocampus; settings: earlier reports; cited from earlier work
[5] = SC_huAPP695 strain, adult day 1
[6] = SC_huAPP695 strain, adult day 3
[7] = SC_huAPP695 strain, adult day 5

For `O=c1[nH]c(=O)n([C@H]2C[C@H](O)[C@@H](CO)O2)cc1F` [5-fluoro-2′-deoxyuridne], the “effect on progression of degeneration of VC neurons (in words)” value ([1]; 0.12 mM final, from L4-larval stage onward (sterilization drug)) was “no effect on the progression of degeneration of VC neurons” and the “swimming defect of single-copy APP or apl-1 strains after sterilization (in words)” value ([2]; 0.12 mM final, swimming kinematics) was “displayed the same defect”.

In the case of `Cc1ccc2c(c1)c1c(n2CCc2ccc(C)nc2)CCN(C)C1` [Dimebon], the “APP-induced degeneration of VC4 and VC5 (in words)” value (“APP-induced degeneration” for short) [3] is reported as “prevents APP-induced neurodegeneration”, the “% degen” value ([3]; SC_apl-1 strain, adult day 1) is reported as 8.97% and the “Day 1 (degenerated of counted)” value ([3]; SC_apl-1 strain, adult day 1) is reported as 14 of 156. For the same molecule, the “% degen” value ([3]; SC_apl-1 strain, adult day 3) was 15.88%, the “Day 3 (degenerated of counted)” value ([3]; SC_apl-1 strain, adult day 3) was 27 of 170 and the “% degen” value ([3]; SC_apl-1 strain, adult day 5) was 17.64%. For the same molecule, the “Day 5 (degenerated of counted)” value ([3]; SC_apl-1 strain, adult day 5) was 12 of 68, the “% degen” value [3, 5] was 10.66% and the “Day 1 (degenerated of counted)” value [3, 5] was 13 of 122. For the same molecule, the “% degen” value [3, 6] was 15.45%, the “Day 3 (degenerated of counted)” value [3, 6] was 17 of 110 and the “% degen” value [3, 7] was 16.67%. For the same molecule, the “Day 5 (degenerated of counted)” value [3, 7] was 13 of 78, the “% degen” value ([3]; Wild-type strain, adult day 1) was 4.63% and the “Day 1 (degenerated of counted)” value ([3]; Wild-type strain, adult day 1) was 5 of 108. The “% degen” value ([3]; Wild-type strain, adult day 3) was 6.45%, the “Day 3 (degenerated of counted)” value ([3]; Wild-type strain, adult day 3) was 8 of 124 and the “% degen” value ([3]; Wild-type strain, adult day 5) was 12.93%. For the same molecule, the “Day 5 (degenerated of counted)” value ([3]; Wild-type strain, adult day 5) was 15 of 116, the “neurodegeneration induced by APP or apl-1 (in words)” value [1] was “prevented neurodegeneration” and the “degeneration with gain-of-function mutation in egl-1 (in words)” value [1] was “failed to prevent degeneration”. For the same molecule, the “degeneration of VC4&5, SC_APPC59 strain (in words)” value [1] was “prevented degeneration”, the “degeneration of VC4&5, SC_APPN636 strain (in words)” value [1] was “failed to provide protection” and the “degeneration in egl-1 (null) mutant background (in words)” value [1] was “no further protection from degeneration”. For the same molecule, the “egg-laying and swimming behaviors, SC_APPC59 strain (in words)” value [2] was “protection of egg-laying and swimming behaviors”, the “behavioral deficits (swimming and egg laying) with age (in words)” value [2] was “without behavioral deficits” and the “adult-born hippocampal neurons (in words)” value [4] was “promote the survival (prevent death) of adult-born hippocampal neurons”.

For `CN1CCN2c3ccccc3Cc3ccccc3C2C1` (stereo not shown) [Mianserin], the “APP-induced degeneration” value [3] was “prevent APP-induced degeneration”.

With `CN1CCN2c3ncccc3Cc3ccccc3C2C1` (stereo not shown) [Mirtazapine] the “APP-induced degeneration” value [3] was “prevent APP-induced degeneration”.

In the case of `OC(CNc1ccccc1)Cn1c2ccc(Br)cc2c2cc(Br)ccc21` (stereo not shown) [P7C3], the “neurodegeneration induced by APP or apl-1 (in words)” value [1] is reported as “significantly prevented neurodegeneration”, the “degeneration with gain-of-function mutation in egl-1 (in words)” value [1] is reported as “failed to prevent degeneration” and the “degeneration of VC4&5, SC_APPC59 strain (in words)” value [1] is reported as “prevented degeneration”. The “degeneration of VC4&5, SC_APPN636 strain (in words)” value [1] was “failed to provide protection”, the “degeneration in egl-1 (null) mutant background (in words)” value [1] was “no further protection from degeneration” and the “relative potency in dose response analysis” value ([1]; prevention of VC4&5 degeneration, FIG. 25B) was “two-orders of magnitude more potent than Dimebon”. The “egg-laying and swimming behaviors, SC_APPC59 strain (in words)” value [2] was “protection of egg-laying and swimming behaviors”, the “behavioral deficits (swimming and egg laying) with age (in words)” value [2] was “without behavioral deficits” and the “adult-born hippocampal neurons (in words)” value [4] was “increase the number of adult-born neurons in the hippocampus of mice”.
